The record followed here is US8940331B2, “Hydrogels, methods of making hydrogels, methods of using hydrogels, and methods of isolating, trapping, attracting, and/or killing cancer cells” (The Board of Trustees of the Leland Stanford Junior …, priority 2008, dated 2015).

Like-named read-outs stand apart in the source and are kept apart here. Square brackets hold non-standard residues; d marks the D form. Peptide text beside a SMILES is read from it. Nspe = C[C@H](NCC(=O)O)c1ccccc1; Nphe = O=C(O)CNCc1ccccc1; Nlys = NCCCCNCC(=O)O

The nature of data set [1]: MTS cell viability assay, primary dermal fibroblasts. The following applies: MTS assay, cells treated 24 h; concentration causing 50% cell death; read-out: LC50 Primary dermal fibroblast. Type of data set: cell-based. The method, then: (§1) A library of cationic, amphipathic peptoid oligomers (“capetoids”) with various chain lengths, charges, helicity, hydrophobicity and amphipathicity have been synthesized. Their activities towards several in vitro cultured cancer cell lines were tested via MTS assays. Primary dermal fibroblasts and freshly isolated red blood cells were also tested to estimate their biosafety. […] In some concentration ranges, these peptoids kill cancer cells efficiently while being relatively safe to primary dermal fibroblasts. […] Furthermore, the actions of these peptoids were not affected by the known multidrug resistance. In MCF 7 cells and the multidrug resistant MCF 7 cells (kindly provided by Prof. Brandy Sikic at Stanford) which overexpress P-glycoproteins, these peptoids had similar cytotoxicities.
For orientation: Formazan colour is commonly taken as a measure of viable cells.

Another data set relates to human RBCs. The format is cell-based. Here is the method: as §1
The format of data set [2] is cell-based. The settings on record: MTS assay, cells treated 24 h, concentration causing 50% cell death. The method, then: as §1
Data set [3] deals with Primary dermal fibroblast. Kind of data set: MTS cell viability assay, primary dermal fibroblasts. The format is cell-based. The settings on record: in vitro; data not shown. The method, then: as §1
The next data set relates to breast cancer cells. The experiment in a line: In vitro chemotaxis transwell assay. Type of data set: cell-based. An excerpt:
Different chemoattractants can be chosen with regard to the cancer types of interest. As an example, Table 2 summarizes chemoattractant candidates for breast cancer. The efficacies and dosages of chemoattractants are being characterized by in vitro chemotaxis assays. The chemotactic effects of an important candidate, stromal cell-derived factor 1 (SDF-1), have been confirmed in vitro using the transwell assay.

Where [4] appears, read: read-out: LC50 Lncap (prostate cancer).
[5] abbreviates: read-out: LC50 MCF7 (breast cancer).
The mark [6] stands for this setting: read-out: LC50 MEL28 (Melanoma).
Where [7] appears, read: read-out: LC50 Ovcar3 (ovarian cancer).

`C[C@@H](c1ccccc1)N(CC(N)=O)C(=O)CN(C(=O)CN(CCCCN)C(=O)CN(Cc1ccccc1)C(=O)CN(Cc1ccccc1)C(=O)CN(CCCCN)C(=O)CN(C(=O)CN(C(=O)CN(CCCCN)C(=O)CN(Cc1ccccc1)C(=O)CN(Cc1ccccc1)C(=O)CNCCCCN)[C@@H](C)c1ccccc1)[C@@H](C)c1ccccc1)[C@@H](C)c1ccccc1` [1-Npm2,3,8,9, H-(NLys-Npm-Npm-NLys-Nspe-Nspe)2-NH2]: the CC50 was 18.5 µM in data set [1]; 10.5 µM in data set [2] (setting [4]); 10 µM in data set [2] (setting [5]); 16.5 µM in data set [2] (setting [6]); 11 µM in data set [2] (setting [7]). This compound came in with an HC10 Red blood cells in the data set on human RBCs of 80 µM.
Consider `C[C@@H](c1ccccc1)N(CC(=O)N(CC(=O)N(CCCCN)CC(=O)N(CC(=O)N(CC(=O)N(CCCCN)CC(=O)N(CC(=O)N(CC(=O)N(CCCCN)CC(=O)N(CC(=O)N(CC(N)=O)Cc1ccccc1)Cc1ccccc1)Cc1ccccc1)Cc1ccccc1)Cc1ccccc1)Cc1ccccc1)Cc1ccccc1)C(=O)CNCCCCN` [1achiral-Nspe 2, H-NLys-Nspe-Npm-(NLys-Npm-Npm)3-NH2] (H-[Nlys][Nspe][Nphe][Nlys][Nphe][Nphe][Nlys][Nphe][Nphe][Nlys][Nphe][Nphe]-NH2), for which the CC50 came out at 36.5 µM in data set [1]; 8.5 µM in data set [2] (setting [4]); 14.5 µM in data set [2] (setting [5]); 18 µM in data set [2] (setting [6]); 15.5 µM in data set [2] (setting [7]). The HC10 Red blood cells in the data set with human RBCs worked out at 160 µM.
For the compound `COc1cccc2c1C(=O)c1c(O)c3c(c(O)c1C2=O)C[C@@](O)(C(=O)CO)C[C@@H]3O[C@H]1C[C@H](N)[C@H](O)[C@H](C)O1` [Doxorubicin, reference compound], in data set [3], the “Killing of primary fibroblasts compared with cancer cell lines” value is “killed primary fibroblasts as efficiently as cancer cell lines”.
As for `C[C@@H](c1ccccc1)N(CC(N)=O)C(=O)CN(C(=O)CN(CCCCN)C(=O)CN(C(=O)CN(C(=O)CN(CCCCN)C(=O)CN(C(=O)CN(C(=O)CN(CCCCN)C(=O)CN(C(=O)CN(C(=O)CNCCCCN)[C@@H](C)c1ccccc1)[C@@H](C)c1ccccc1)[C@@H](C)c1ccccc1)[C@@H](C)c1ccccc1)[C@@H](C)c1ccccc1)[C@@H](C)c1ccccc1)[C@@H](C)c1ccccc1` [Peptoid 1, H-(NLys-Nspe-Nspe)4-NH2] (H-[Nlys][Nspe][Nspe][Nlys][Nspe][Nspe][Nlys][Nspe][Nspe][Nlys][Nspe][Nspe]-NH2), the CC50 in data set [1] worked out at 5 µM; in data set [2] (setting [4]), 5 µM; in data set [2] (setting [5]), 4.5 µM; in data set [2] (setting [6]), 5 µM; in data set [2] (setting [7]) it was 6.5 µM. Besides, the “HC10 Red blood cells” value with human RBCs (concentration causing 10% hemolysis of human RBCs) came out at 21000 µM.
As for `NCCCCNCC(=O)N(CC(=O)N(CC(=O)N(CCCCN)CC(=O)N(CC(=O)N(CC(=O)N(CCCCN)CC(=O)N(CC(=O)N(CC(=O)N(CCCCN)CC(=O)N(CC(=O)N(CC(N)=O)Cc1ccccc1)Cc1ccccc1)Cc1ccccc1)Cc1ccccc1)Cc1ccccc1)Cc1ccccc1)Cc1ccccc1)Cc1ccccc1` [Peptoid 1achiral, H-(NLys-Npm-Npm)4-NH2] (H-[Nlys][Nphe][Nphe][Nlys][Nphe][Nphe][Nlys][Nphe][Nphe][Nlys][Nphe][Nphe]-NH2), the CC50 in data set [1] was found to be 39.5 µM; in data set [2] (setting [4]), 10.5 µM; in data set [2] (setting [5]), 15 µM; in data set [2] (setting [6]), 18.5 µM; in data set [2] (setting [7]), 16 µM. For the same compound, in the data set with human RBCs, the HC10 Red blood cells is 183 µM.
Regarding `C[C@@H](c1ccccc1)N(CC(N)=O)C(=O)CN(CCCCN)C(=O)CN(C(=O)CN(C(=O)CN(CCCCN)C(=O)CN(C(=O)CN(C(=O)CN(CCCCN)C(=O)CN(C(=O)CN(C(=O)CNCCCCN)[C@@H](C)c1ccccc1)[C@@H](C)c1ccccc1)[C@@H](C)c1ccccc1)[C@@H](C)c1ccccc1)[C@@H](C)c1ccccc1)[C@@H](C)c1ccccc1` [Peptoid 111mer, H-(NLys-Nspe-Nspe)3-NLys-Nspe-NH2] (H-[Nlys][Nspe][Nspe][Nlys][Nspe][Nspe][Nlys][Nspe][Nspe][Nlys][Nspe]-NH2), the CC50 in data set [1] is 18.5 µM; in data set [2] (setting [4]), 8 µM; in data set [2] (setting [5]), 9 µM; in data set [2] (setting [6]), 15 µM; in data set [2] (setting [7]) it was 10.5 µM. Also, the HC10 Red blood cells in the data set on human RBCs was 103 µM.
Consider `CC(=O)O[C@@]12CO[C@@H]1C[C@H](O)[C@@]1(C)C(=O)[C@H](O)C3=C(C)[C@@H](OC(=O)[C@H](O)[C@@H](NC(=O)OC(C)(C)C)c4ccccc4)C[C@@](O)([C@@H](OC(=O)c4ccccc4)[C@H]21)C3(C)C` [docetaxel, reference compound], for which the “Killing of primary fibroblasts compared with cancer cell lines” value in data set [3] is listed as “killed primary fibroblasts as efficiently as cancer cell lines”.
Consider stromal cell-derived factor 1 [SDF-1], for which the Chemotactic effects result with breast cancer cells is listed as “confirmed”.
